Experimental data as given in publication doi:10.1101/2025.07.28.667221, “Pentilludin reduces rat amphetamine and remifentail self-administration with good pharmacologic and toxicologic profiles” (bioRxiv, 2025).
pIC50: −log10 of the molar value. “Also recorded” adds a separate entry of the source. Like-named read-outs stand apart in the source and are kept apart here.

What was measured:
[1] = system: Ames test; test: Ames test; assay type: cell-based; conditions: in vitro
[2] = system: micronucleus test; test: micronucleus test; assay type: cell-based; conditions: in vitro
[3] = biological target: hERG channels (Homo sapiens, UniProt Q12809); test: hERG channel activity; conditions: in vitro
Chain of hERG channels (Q12809 whole entry): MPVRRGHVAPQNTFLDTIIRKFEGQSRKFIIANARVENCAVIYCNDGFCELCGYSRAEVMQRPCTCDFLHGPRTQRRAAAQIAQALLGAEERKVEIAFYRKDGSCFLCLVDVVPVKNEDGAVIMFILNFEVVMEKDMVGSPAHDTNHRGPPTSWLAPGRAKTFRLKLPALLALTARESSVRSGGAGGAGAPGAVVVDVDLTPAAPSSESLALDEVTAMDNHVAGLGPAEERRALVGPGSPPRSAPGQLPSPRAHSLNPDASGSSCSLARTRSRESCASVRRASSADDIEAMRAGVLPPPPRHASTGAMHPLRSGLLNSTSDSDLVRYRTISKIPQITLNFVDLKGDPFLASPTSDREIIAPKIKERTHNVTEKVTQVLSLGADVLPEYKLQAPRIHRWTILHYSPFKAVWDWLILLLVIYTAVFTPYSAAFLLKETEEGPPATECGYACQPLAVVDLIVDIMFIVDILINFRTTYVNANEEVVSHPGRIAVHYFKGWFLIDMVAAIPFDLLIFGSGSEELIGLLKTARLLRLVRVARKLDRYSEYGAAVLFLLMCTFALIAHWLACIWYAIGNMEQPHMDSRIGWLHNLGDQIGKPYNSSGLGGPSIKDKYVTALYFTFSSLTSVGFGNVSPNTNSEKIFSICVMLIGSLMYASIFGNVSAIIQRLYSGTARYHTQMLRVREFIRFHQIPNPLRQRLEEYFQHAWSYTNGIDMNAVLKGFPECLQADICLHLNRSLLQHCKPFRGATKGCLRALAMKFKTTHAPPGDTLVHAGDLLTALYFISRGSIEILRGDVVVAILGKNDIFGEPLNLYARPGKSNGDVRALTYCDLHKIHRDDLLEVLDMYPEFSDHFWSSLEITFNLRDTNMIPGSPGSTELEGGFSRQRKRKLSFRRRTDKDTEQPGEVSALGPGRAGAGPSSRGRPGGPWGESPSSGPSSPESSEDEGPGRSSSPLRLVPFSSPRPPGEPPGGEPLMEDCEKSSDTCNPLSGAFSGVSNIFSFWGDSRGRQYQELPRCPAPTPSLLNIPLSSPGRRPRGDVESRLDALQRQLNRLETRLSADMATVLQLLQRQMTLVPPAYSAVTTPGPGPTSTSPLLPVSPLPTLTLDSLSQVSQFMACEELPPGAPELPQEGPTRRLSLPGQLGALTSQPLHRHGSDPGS

[4] = Solubility in dosing vehicles; assay type: physicochemical; conditions: read-out: soluble at concentrations up to
Method: Pentilludin powder was >97.5% pure following synthesis and when reanalyzed (Certificate of Analysis, GLP) 1 ½ and 2 ½ years after synthesis. Pentilludin was soluble in 6.82% Captisol in 60:40 PEG600/water (the vehicle used for initial toxicology experiments) and in PEG600 (the vehicle used for self-administration and Good Laboratory Practices testing) at concentrations up to 100 mg/ml with gentle heating.

[5] = Plasma pentilludin levels after acute 20 mg/kg iv or po administration; assay type: in vivo; conditions: rat
Method: Proteins in 50 μL plasma collected with K2EDTA as anti-coagulant were precipitated by adding 5 μL of acetonitrile with 0.5% v/v ascorbate, 200 μL of acetonitrile containing 20 ng/ml tolbutamide internal standard with 0.5% ascorbate was added, the mixture was vortexed for 1 min, centrifuged @ 4000 rpm for 15 mins and peaks in 8 μL of the supernatant were identified using an AB Sciex Triple Quad 5500 LC-MS/MS (electrospray, negative ions, Analyst 1.6.3 software) and a Waters Acquity Ultra Performance LC System with 50 × 2.1 mm Acuity UPLC Beh C18 1.7 μm column eluted for 2.5 min @ 22°C @ 0.5 ml/min with Mobile Phase A (5mM NH4OAc in water with 0.05% formic acid) and mobile phase B (acetonitrile with 0.1% formic acid) with changes in % A as follows: 60, 10, 5, and 60. Standards were quantitated at concentrations ranging from 1– 2000 ng/mL.

[6] = system: rats trained to self-administer amphetamine iv; test: Amphetamine self-administration; assay type: in vivo; conditions: rat
Method: (§1) Young adult Sprague-Dawley rats (Charles River Laboratories, Raleigh, NC, USA) were singly housed on a reverse 12:12 day night cycle and tested during their active (dark) phase in studies approved by the Duke Institutional Animal Care and Use Committee. Rats had catheters surgically implanted in their jugular veins to provide access for self-administration by IV infusion. Briefly, rats were anesthetized with i.p. injections of ketamine (Fort Dodge Animal Health, Fort Dodge, IA, USA; […]) with the addition of Dexdomitor (Pfizer, New York, NY, USA; 0.15 mg/kg) which is a sedative and analgesic agent. Before surgery, ketoprofen (5 mg/kg, s.c.) was administered to reduce post-operative pain and inflammation. A plastic SoloPort was attached intraoperatively to a polyurethane catheter and inserted into a subcutaneous interscapular pocket and sutured to underlying fascia.
(§2) The day following surgery, the rats began self-administration sessions with amphetamine (0.1 mg/kg/infusion, iv) or remifentanil (0.3 μg/kg/infusion, iv) as reinforcers. […] Each infusion was followed by a 20-sec timeout in which the house light goes on and cue light goes out. Responses were recorded but not reinforced during this interval. […] There were five sessions of training for self-administration before the onset of pentilludin drug treatment sessions. All of the animals had the same number of training sessions to provide all with equal testing history. Each infusion session lasted for one hour. Animals were tested not more than once/day between 9 AM and 4 PM.
(§3) At the end of each study catheter patency was confirmed by assessing sedation following methohexital (brevital) administration through the catheter. […] Self-administration results, differences from baseline levels, were assessed for statistical for significance with analysis of variance. To control for baseline differences in self-administration, the self-administration with pentilludin or vehicle treatment was analyzed as a difference from each animal’s self-administration on the last two sessions of baseline training. […]

[7] = system: rats trained to self-administer remifentanil iv; test: Remifentanil self-administration; assay type: in vivo; conditions: rat
Method: as §1, §2, §3

[8] = system: rats; test: Lever pressing for self-administration of food pellets; assay type: in vivo; conditions: rat, eight sessions of testing
[9] = system: dogs; test: Two week oral dosing in dogs, kidney pathology; assay type: in vivo, dog; conditions: 15 mg/kg/d po for two weeks
[10] = Metabolism in rat liver microsomes; assay type: in vitro ADME
[11] = Metabolism in human liver microsomes; assay type: in vitro ADME
[12] = Metabolism in rat plasma; assay type: in vitro ADME
[13] = Metabolism in human plasma; assay type: in vitro ADME
[14] = system: recombinant paraoxonase; test: Interaction with recombinant paraoxonase; assay type: in vitro ADME; conditions: initial work
[15] = biological target: receptor type protein tyrosine phosphatase D (PTPRD); set-up: method as in PMID 34863978; conditions: likely irreversible; read-out: potency in inhibiting PTPRD's phosphatase; cited from earlier work
[16] = system: receptor type protein tyrosine phosphatase S (PTPRS); set-up: method as in PMID 35636503; conditions: cited from earlier work
[17] = system: receptor type protein tyrosine phosphatase F (PTPRF); set-up: method as in PMID 35636503; conditions: cited from earlier work
[18] = system: receptor type protein tyrosine phosphatase J (PTPRJ); set-up: method as in PMID 35636503; conditions: cited from earlier work
[19] = system: nonreceptor type protein tyrosine phosphatase 1 (PTPN1/ PTP1B); set-up: method as in PMID 35636503; conditions: cited from earlier work
[20] = system: targets of the NIDA-EUROFINS assays (virtually all targets of currently marketed drugs); set-up: method as in PMID 34863978; conditions: cited from earlier work
[21] = system: mice; conditions: cited from earlier work
[22] = Repeated two week daily oral administration toxicity (observational battery, weight, chemistry, hematology, histopathology); conditions: rat
[23] = system: mice; set-up: method as in PMID 30348770; conditions: cited from earlier work
[24] = system: mice; set-up: method as in PMID 30348770; conditions: cited from earlier work; remark: listed apart in the source
[25] = 20 mg/kg sc prior to every other session, 20 mg/kg

COc1c(OCC2CCCC2)cc2c(c1C=O)CC(O)OC2=O (stereo not drawn) [Pentilludin]
activity in Ames test [1]: no in vitro activities
activity in micronucleus test [2]: no in vitro activities
activity at hERG channels [3]: no in vitro activities
solubility ([4]; 6.82% Captisol in 60:40 PEG600/water (dosing vehicle), 6.82% Captisol in 60:40 PEG600/water, gentle heating): ≤ 100 mg/mL
solubility ([4]; PEG600 (dosing vehicle), PEG600, gentle heating): ≤ 100 mg/mL
bioavailability ([5]; plasma, po, 20 mg/kg, data from 0.5 to 4h, read-out: bioavailability for po pentilludin in PEG600): 15%
concentration at 0.08 h ([5]; plasma, IV 20.0 mg/kg, 0.08 h): 62200 ng/mL
concentration at 0.5 h ([5]; plasma, IV 20.0 mg/kg, 0.50 h): 2920 ng/mL
concentration at 4 h ([5]; plasma, IV 20.0 mg/kg, 4.0 h): 4.98 ng/mL
concentration at 0.5 h ([5]; plasma, PO 20.0 mg/kg in PEG600, 0.50 h): 449 ng/mL
concentration at 2 h ([5]; plasma, PO 20.0 mg/kg in PEG600, 2.0 h): 146 ng/mL
concentration at 4 h ([5]; plasma, PO 20.0 mg/kg in PEG600, 4.0 h): 17.1 ng/mL
terminal half-life of plasma pentilludin ([5]; 20 mg/kg): between one and two
signs of gross toxicity ([5]; acute 20 mg/kg): no signs of gross toxicity
reduction of amphetamine self-administration overall relative to controls ([6]; 20 mg/kg sc prior to every other session, 12 sessions): 6.2 infusions per session
effect on amphetamine self-administration [6, 25]: substantially reduces; also recorded: robustly reduced
decrease of amphetamine self-administration from last acquisition sessions ([6]; 20 mg/kg sc, last two of 12 sessions): 23%
effect on remifentanil self-administration [7, 25]: more modestly reduces; also recorded: significantly attenuated the increase
smaller increase in remifentanil self-administration relative to vehicle-treated controls ([7]; 20 mg/kg sc, 11th and 12th sessions): 26.5%
responding on the control lever ([7]; remifentanil self-administration): did not differ
food pellets per one-hour session [8]: 85.6 ± 6.3 food pellets
kidney pathology [9]: fail to display any kidney pathology
metabolism [10]: only modest metabolism
metabolism [11]: only modest metabolism
metabolism [12]: robust metabolism
metabolism [13]: robust metabolism
interaction with recombinant paraoxonase [14]: interacts avidly
pIC50 [15]: 6.16
potency at PTPRS [16]: some potency
potency at PTPRF [17]: some potency
potency at PTPRJ [18]: less potency
potency at PTPN1/ PTP1B [19]: less potency
pIC50 [20]: ≤ 4.00
activity at targets for currently-licensed drugs ([20]; in vitro): no in vitro activities
oral intake and weight ([21]; daily ≥ 150 mg/kg po): reduce oral intake and lose weight starting on about the 4th day
toxicity on weeks-long repeated treatments ([21]; pentilludin doses up to 100 mg/kg/d po): little evidence for toxicity
weight loss ([21]; repeated doses of 100 mg/kg/day): no weight loss
serum chemistry abnormalities in measures relating to renal function ([22]; 150 mg/kg/d): no serum chemistry abnormalities
proteinuria ([22]; 150 mg/kg/d po two weeks, 150 mg/kg/day): proteinuria in rats treated with 150 mg/kg/d that recovered within two weeks of the end of pentilludin administration; also recorded: modest and reversible proteinuria
effects on the observational battery, weight, plasma chemistries or hematological assessments ([22]; 50 or 75 mg/kg po daily in PEG600, two weeks): no significant effects
kidney histopathology ([22]; daily doses for two weeks, also found with vehicle): basophilic lesions in the kidneys of a number of the rats
alterations in serum chemistries related to renal function ([22]; doses up to 100 mg/kg/d): None of the rats treated with doses up to 100 mg/kg/d displayed alterations
behavioral, hematologic or serum chemistry abnormalities ([22]; doses up to 100 mg/kg/day for two weeks): have not been found to display behavioral, hematologic or serum chemistry abnormalities
effects on histopathology ([22]; good laboratory practices toxicology study, 50 or 75 mg/kg/d po two weeks): no pentilludin-associated effects detected
effect on plasma chemistry, hematology and behavioral observation batteries ([22]; good laboratory practices work): lack of effect

CCCCOc1cc2c(c(C=O)c1OC)CC(O)OC2=O (stereo not drawn) [7-BIA]
stimulant reward, cocaine conditioned place preference [23]: reduces stimulant reward
stimulant reward, cocaine self-administration [24]: reduces stimulant reward
toxicity on weeks-long repeated treatments [21]: little evidence for toxicity
